Experimental data: the supplement of paper PMC10307832

Legend:
Assay in all cases: relative viability (nuclei count vs DMSO), 5 days (fraction); higher = more cells survive
[1] = compound: COc1cc2ncn(-c3cc(OCc4ccccc4C(F)(F)F)c(C(N)=O)s3)c2cc1OC + COc1cc2c(Oc3ccc(NC(=O)C4(C(=O)Nc5ccc(F)cc5)CC4)cc3F)ccnc2cc1OCCCN1CCOCC1 [Foretinib] (partner 0.25 µM)
Summary of the method: (§1)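 Lung cancer cell lines, seeded in 1536-well plates, were treated the following day by pin tool with a single drug or with five library-drug doses (not always all listed) in √10 steps on top of a fixed anchor-drug dose. Cells were fixed and nuclei stained in one step after 5 days, and nuclei were counted. Relative viability is the nuclei count for treated wells divided by that for vehicle wells, reported as medians of duplicate plates.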

[2] = compound: COc1cc2ncn(-c3cc(OCc4ccccc4C(F)(F)F)c(C(N)=O)s3)c2cc1OC + CCNC(=O)c1noc(-c2cc(C(C)C)c(O)cc2O)c1-c1ccc(CN2CCOCC2)cc1 [Luminespib] (partner 0.01 µM)
Summary of the method: as §1

[3] = compound: COc1cc2ncn(-c3cc(OCc4ccccc4C(F)(F)F)c(C(N)=O)s3)c2cc1OC + Cc1cc(Nc2cc(N3CCN(C)CC3)nc(Sc3ccc(NC(=O)C4CC4)cc3)n2)n[nH]1 [Tozasertib] (partner 0.1 µM)
Summary of the method: as §1

[4] = compound: COc1cc2ncn(-c3cc(OCc4ccccc4C(F)(F)F)c(C(N)=O)s3)c2cc1OC + NC(=O)Nc1cc(-c2cccc(F)c2)sc1C(=O)N[C@H]1CCCNC1 [AZD7762] (partner 0.2 µM)
Summary of the method: as §1

Cell Line | relative viability ([1]; first compound 0.05 µM) | relative viability ([1]; first compound 0.1581 µM) | relative viability ([1]; first compound 0.5 µM) | relative viability ([1]; first compound 1.581 µM) | relative viability ([1]; first compound 5 µM) | relative viability ([2]; first compound 0.05 µM) | relative viability ([2]; first compound 0.1581 µM) | relative viability ([2]; first compound 0.5 µM) | relative viability ([2]; first compound 1.581 µM) | relative viability ([2]; first compound 5 µM) | relative viability ([3]; first compound 0.05 µM) | relative viability ([3]; first compound 0.1581 µM) | relative viability ([3]; first compound 0.5 µM) | relative viability ([3]; first compound 1.581 µM) | relative viability ([3]; first compound 5 µM) | relative viability ([4]; first compound 0.05 µM) | relative viability ([4]; first compound 0.1581 µM) | relative viability ([4]; first compound 0.5 µM) | relative viability ([4]; first compound 1.581 µM) | relative viability ([4]; first compound 5 µM)
A549 | 0.979 | 1.03 | 0.423 | 0.0316 | 0.0318 |  |  |  |  |  |  |  |  |  |  |  |  |  |  | 
COR-L23 | 0.94 | 1.04 | 0.663 | 0.158 | 0.118 | 0.363 | 0.604 | 0.249 | 0.104 | 0.0965 | 0.213 | 0.189 | 0.13 | 0.143 | 0.139 |  |  |  |  | 
COR-L 105 | 1.2 | 1.2 | 1.17 | 0.391 | 0.302 | 0.828 | 0.846 | 0.616 | 0.312 | 0.245 | 0.43 | 0.383 | 0.392 | 0.284 | 0.277 |  |  |  |  | 
Calu-6 | 0.791 | 0.612 | 0.203 | 0.0691 | 0.0725 |  |  |  |  |  |  |  |  |  |  |  |  |  |  | 
EBC-1 | 0.0982 | 0.102 | 0.0761 | 0.0874 | 0.0751 |  |  |  |  |  |  |  |  |  |  |  |  |  |  | 
HCC-44 |  |  |  |  |  | 0.854 | 1.13 | 0.613 | 0.168 | 0.132 | 0.983 | 0.903 | 0.242 | 0.346 | 0.199 | 1.03 | 1.04 | 0.991 | 0.549 | 0.375
HCC-78 | 0.574 | 0.585 | 0.469 | 0.327 | 0.379 |  |  |  |  |  | 0.517 | 0.345 | 0.325 | 0.222 | 0.292 | 0.795 | 0.653 | 0.493 | 0.565 | 0.422
HCC-366 | 0.962 | 0.938 | 0.282 | 0.0269 | 0.0243 |  |  |  |  |  | 0.101 | 0.12 | 0.0568 | 0.0457 | 0.046 | 0.51 | 0.431 | 0.385 | 0.0175 | 0.0105
IA-LM | 1.16 | 0.987 | 0.328 | 0.0521 | 0.0505 |  |  |  |  |  |  |  |  |  |  |  |  |  |  | 
NCI-H520 | 0.892 | 0.836 | 0.357 | 0.249 | 0.204 | 0.218 | 0.25 | 0.21 | 0.261 | 0.2 | 0.466 | 0.421 | 0.44 | 0.309 | 0.384 |  |  |  |  | 
NCI-H661 | 0.908 | 0.866 | 0.854 | 0.322 | 0.27 | 0.812 | 0.872 | 0.528 | 0.255 | 0.212 | 0.37 | 0.348 | 0.327 | 0.301 | 0.321 |  |  |  |  | 
NCI-H1299 | 1.1 | 1.07 | 0.664 | 0.255 | 0.257 |  |  |  |  |  |  |  |  |  |  |  |  |  |  | 
NCI-H1563 | 0.839 | 0.897 | 1.28 | 0.767 | 0.567 | 0.587 | 0.501 | 0.513 | 0.474 | 0.4 |  |  |  |  |  |  |  |  |  | 
NCI-H1648 |  |  |  |  |  |  |  |  |  |  | 0.455 | 0.371 | 0.157 | 0.235 | 0.182 | 0.699 | 0.721 | 0.637 | 0.25 | 0.214
NCI-H1650 | 1.04 | 1.01 | 1.08 | 0.13 | 0.139 | 0.187 | 0.187 | 0.193 | 0.19 | 0.185 | 0.304 | 0.324 | 0.221 | 0.225 | 0.154 |  |  |  |  | 
NCI-H1703 | 0.308 |  | 0.303 |  | 0.15 |  |  |  |  |  |  |  |  |  |  | 0.141 | 0.131 | 0.104 | 0.119 | 0.104
NCI-H1792 |  |  |  |  |  | 0.509 | 0.397 | 0.339 | 0.208 | 0.185 |  |  |  |  |  | 0.61 | 0.71 | 0.472 | 0.0325 | 0.0304
NCI-H2009 | 1.07 | 1.1 | 0.89 | 0.354 | 0.248 | 1.03 | 0.941 | 0.819 | 0.127 | 0.101 | 0.625 | 0.625 | 0.353 | 0.301 | 0.227 |  |  |  |  | 
NCI-H2023 | 0.765 | 0.799 | 0.725 | 0.416 | 0.0871 | 0.735 | 0.679 | 0.299 | 0.0886 | 0.0831 | 0.24 | 0.341 | 0.164 | 0.132 | 0.0834 |  |  |  |  | 
NCI-H2228 | 0.85 | 0.739 | 0.351 | 0.1 | 0.162 | 0.114 | 0.159 | 0.147 | 0.139 | 0.126 | 0.291 | 0.258 | 0.133 | 0.178 | 0.201 |  |  |  |  | 
SK-LU-1 | 0.811 | 0.765 | 0.32 | 0.219 | 0.206 | 0.223 | 0.238 | 0.203 | 0.217 | 0.193 | 0.306 | 0.301 | 0.285 | 0.225 | 0.206 |  |  |  |  | 
SK-MES-1 | 0.892 | 0.877 | 0.518 |  | 0.667 | 0.725 | 0.83 | 0.266 | 0.167 | 0.182 | 0.586 | 0.631 | 0.241 | 0.174 | 0.195 |  |  |  |  | 
SW 1573 | 0.927 | 0.94 | 0.825 | 0.157 | 0.567 | 0.547 | 0.337 | 0.12 | 0.091 | 0.154 | 0.154 | 0.179 | 0.192 | 0.174 | 0.139 |  |  |  |  | 
UMC-11 | 0.893 | 0.836 | 0.156 | 0.18 | 0.145 | 0.974 | 0.722 | 0.128 | 0.161 | 0.145 | 0.194 | 0.192 | 0.193 | 0.278 | 0.253 |  |  |  |  | 
